Values quoted from earlier work in US20240269079A1, “MELATONIN FORMULATION IN SOLID DOSAGE FORM” (AGB-Pharma AB, priority 2021, published 2024).

How the values were obtained:
[1] = after administration

## COc1ccc2[nH]cc(CCNC(C)=O)c2c1 [melatonin, N-acetyl-5-methoxytryptamine]
[1]
  Time for blood levels to return to normal daytime levels: 6 to 8 h
other
  Solubility in aqueous solutions: low solubility
